The record followed here is US8436039B2, “Inhibitors of the ATB(0,+) transporter and uses thereof” (Georgia Health Sciences University Research Institute, Inc., priority 2008, dated 2013).

This assay has as its target T1, human ATB^0,+ (Homo sapiens, UniProt Q9UN76).
T1 construct: The human ATB^0,+ cDNA was cloned from an MCF7 cell (a human mammary epithelial cancer cell line) cDNA library; expressed in transfected cells; host or cells: Xenopus laevis oocytes injected with 50 ng capped cRNA
T1 sequence (Q9UN76 1-642): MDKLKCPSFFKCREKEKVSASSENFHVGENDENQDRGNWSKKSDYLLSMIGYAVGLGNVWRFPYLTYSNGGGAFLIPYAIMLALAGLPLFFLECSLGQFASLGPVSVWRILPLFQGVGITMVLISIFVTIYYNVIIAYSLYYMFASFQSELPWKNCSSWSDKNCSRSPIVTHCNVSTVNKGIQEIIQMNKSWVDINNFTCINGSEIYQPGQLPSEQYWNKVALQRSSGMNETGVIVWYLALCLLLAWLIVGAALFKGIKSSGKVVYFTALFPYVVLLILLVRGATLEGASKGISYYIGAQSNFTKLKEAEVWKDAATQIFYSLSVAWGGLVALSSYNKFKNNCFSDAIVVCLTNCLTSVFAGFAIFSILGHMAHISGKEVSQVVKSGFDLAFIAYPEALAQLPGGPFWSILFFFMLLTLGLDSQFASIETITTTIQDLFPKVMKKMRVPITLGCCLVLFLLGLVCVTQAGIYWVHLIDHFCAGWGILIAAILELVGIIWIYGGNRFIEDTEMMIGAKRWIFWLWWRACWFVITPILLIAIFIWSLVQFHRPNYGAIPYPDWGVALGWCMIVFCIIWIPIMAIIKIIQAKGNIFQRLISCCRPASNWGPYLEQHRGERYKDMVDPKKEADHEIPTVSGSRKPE
The assay can be described thus: L-tryptophan-induced inward currents in X. laevis oocytes expressing human ATB^0,+. In kind it is cell-based. The settings on record: 1 mM added simultaneously with 20 μM L-tryptophan. The method, then: Capped cRNA from the cloned mouse or human ATB^0,+ cDNA was synthesized using the mMESSAGE mMACHTNE kit (Ambion, Austin, Tex., U.S.A.). Mature oocytes (stage IV or V) from X. laevis were injected with 50 ng of cRNA. Uninjected oocytes served as controls. The oocytes were used for electrophysiological studies 3-6 days after cRNA injection. Electrophysiological studies were performed by the two-microelectrode voltage-clamp method (Nakanishi et al., 2001, J. Physiol. 532, 297-304). Oocytes were superfused with an NaCl-containing buffer (100 mM NaCl, 2 mM KCl, 1 mM MgCl2, 1 mM CaCl2, 3 mM Hepes, 3 mM Mes and 3 mM Tris, pH 7.5), followed by the same buffer containing tryptophan derivatives. The membrane potential was clamped at −50 mV. The differences between the steady-state currents measured in the presence and absence of substrates were considered as the substrate-induced currents. In the analysis of the saturation kinetics of substrate-induced currents, the kinetic parameter K0.5 (i.e. substrate concentration necessary for induction of half-maximal current) was calculated by fitting the values of the substrate-induced currents to the Michaelis-Menten equation. The Na^+ and Cl^− activation kinetics of substrate-induced currents were analysed by measuring the substrate-specific currents in the presence of increasing concentrations of Na^+ (concentration of Cl^− kept constant at 100 mM) or in the presence of increasing concentrations of Cl^− (concentration of Na^+ kept constant at 100 mM). In these experiments, the composition of the superfusion buffer was modified to contain 2 mM potassium gluconate, 1 mM MgSO4 and 1 mM calcium gluconate in place of KCl, MgCl2 and CaCl2 respectively. The data from these experiments were analysed by the Hill equation to determine the Hill coefficient (h; number of Na^+ and Cl^− ions involved in the activation process). The kinetic parameters were determined by using the commercially available computer program Sigma Plot, version 6.0 (SPSS, Chicago, Ill., U.S.A.). […]

Consider `CC(N)(Cc1c[nH]c2ccccc12)C(=O)O` (racemic) [α-methyl-DL-tryptophan], for which the “effect on inward currents induced by 20 μM L-tryptophan” value was “blocked completely”. To `Cn1cc(CC(N)C(=O)O)c2ccccc21` (racemic) [1-methyl-DL-tryptophan] belongs “greater than that with 20 μM L-tryptophan alone”.
